Experimental data published in the NIST ThermoML archive (doi:10.1021/je900077g).

Experiment: excess molar enthalpy (molar enthalpy of mixing); xn = mol fraction of the nth substance listed
Details: 308.15 K, 101 kPa, Liquid, Calvet calorimetry

C1COCCO1 [1,4-dioxane] + C1CCCCC1
Details | excess molar enthalpy [kJ/mol]
x2 = 0.101 | 0.57
x2 = 0.204 | 1.05
x2 = 0.288 | 1.33
x2 = 0.408 | 1.56
x2 = 0.506 | 1.62
x2 = 0.606 | 1.57
x2 = 0.705 | 1.44
x2 = 0.803 | 1.15
x2 = 0.9 | 0.695

C1CCOCC1 [tetrahydropyran] + C1CCCCC1
Details | excess molar enthalpy [kJ/mol]
x2 = 0.101 | 0.157
x2 = 0.2 | 0.294
x2 = 0.3 | 0.412
x2 = 0.4 | 0.49
x2 = 0.499 | 0.526
x2 = 0.606 | 0.519
x2 = 0.699 | 0.461
x2 = 0.8 | 0.355
x2 = 0.9 | 0.198

C1CCOCC1 [tetrahydropyran] + C1COCCO1
Details | excess molar enthalpy [kJ/mol]
x1 = 0.104 | 0.149
x1 = 0.201 | 0.249
x1 = 0.299 | 0.315
x1 = 0.398 | 0.352
x1 = 0.497 | 0.361
x1 = 0.612 | 0.342
x1 = 0.716 | 0.296
x1 = 0.8 | 0.235
x1 = 0.9 | 0.135
